We go through 19 compounds from patent publication US20240408065A1, “CYANO COMPOUND, AND PREPARATION METHOD THEREFOR AND USE THEREOF” (SHANGHAI INSTITUTE OF MATERIA MEDICA, CHINESE ACADEMY OF …, priority 2021, published 2024).

For data set [1], the target named is T1, SARS-CoV-2 3CLpro (Severe acute respiratory syndrome coronavirus 2, UniProt P0DTD1).
T1 construct: The SARS-CoV-2 3CL^pro protease and different concentrations of the compounds were added to a 96-well plate
The data set can be described thus: biochemical. To be noted: protease 30 nM, substrate 20 μM.

Data set [2] can be described thus: in vitro. The conditions noted are these: African green monkey.
Description: In the cytotoxicity test, Vero E6 cells were digested and placed in a culture medium (90% DMEM, 10% fetal bovine serum), inoculated into a 96-well plate at 20000 cells per well, and cultured overnight. The compound to be tested was dissolved in DMSO to prepare a 40 mM stock solution, and further serially diluted with a culture medium or a culture medium containing 0.5 μM Pgp inhibitor to obtain the concentration required for the test.
Data set [3] concerns SARS-CoV-2 Omicron strain (B.1.1.529). The data set can be described thus: microbe, parasite or virus in culture. The conditions noted are these: Severe acute respiratory syndrome coronavirus 2, Vero C1008.
For data set [4] the following is noted: cynomolgus monkey, in vivo.
Data set [5] relates to 47 safety-related targets. To be noted: read-out: ECo on 47 safety-related targets.
Excerpt: For the 78 tests related to the 47 safe targets, the experimental methods used include: cAMP assay, calcium flux assay, hormone nuclear receptor assay, kinase binding assay, enzyme activity assay, neurotransmitter transporter assay, ion channel assay, and transporter assay.
In data set [6] the test system is SARS-CoV-2 B.1.351 strain. The data set can be described thus: microbe, parasite or virus in culture. To be noted: Severe acute respiratory syndrome coronavirus 2, Vero C1008, 24 h.
In data set [7] the test system is SARS-CoV-2 delta strain. The conditions noted are these: mouse, in vivo.

Several values for one entry are separate records, joined by “and”; a condition that tells them apart may be missing. Equal entries are not always repeated.

In turn, `CC(C)(C)OC(=O)N[C@H](C(=O)N1CC2(C[C@H]1C(=O)N[C@H](C#N)C[C@@H]1CCNC1=O)SCCS2)C(C)(C)C` [Compound 1] registered an IC50 in data set [1] below 100 nM.

Consider `CC(C)(C)[C@H](NC(=O)C(F)(F)F)C(=O)N1CC2(C[C@H]1C(=O)N[C@H](C#N)C[C@@H]1CCNC1=O)SCCS2` [Compound 2], for which the CC50 in data set [2] was above 500000 nM. Further, 120 nM corresponded to half-maximal inhibition in data set [3] (IC50). In data set [4], the arrhythmia entry is listed as “no arrhythmia related to the test product”, the “change in the cardiovascular system” value is “no change in the cardiovascular system related to the test product” and the “changes in ECG parameters or blood pressure” value is on record as “no changes in ECG parameters or blood pressure related to the test product”. Besides, the EC50 in data set [5] is above 100000 nM. The EC50 in data set [6] came to 730 nM. Moreover, in data set [7], the “Viral load, brain tissue, Day 2” value was 0.77 ± 0.20 log10 copies/mg and 1.04 ± 0.24 log10 copies/mg; the “Viral load, lung tissue, Day 4” value is 7.88 ± 0.74 log10 copies/g and 7.48 ± 0.63 log10 copies/g; the “body weight of the mice” value is on record as “did not decrease significantly”; the “decrease of virus copy number in the lung compared with the model group” value was 2.4 log 10 copies/g. Moreover, in data set [7], the “decrease of virus titer in the lung compared with the model group” value was “more than 3 log 10 PFU/g”, the “effect on virus titer in the lung” value is “sustained inhibitory effect”, the “histopathological analysis of the lung” value is on record as “significantly improved lung damage” and the “virus titer in the brain (plaque test)” value was “no virus titer was determined”. For the same compound, the “virus titer in the lung (plaque test)” value in data set [7] is reported as “no titer was detected”.

In the case of `CC(=O)N[C@H](C(=O)N1CC2(C[C@H]1C(=O)N[C@H](C#N)C[C@@H]1CCNC1=O)SCCS2)C(C)(C)C` [Compound 3], the IC50 in data set [1] was below 100 nM.

As to `CC(C)(C)[C@H](NC(=O)C1CC1)C(=O)N1CC2(C[C@H]1C(=O)N[C@H](C#N)C[C@@H]1CCNC1=O)SCCS2` [Compound 4], the IC50 in data set [1] was below 100 nM.

Consider `COC(=O)N[C@H](C(=O)N1CC2(C[C@H]1C(=O)N[C@H](C#N)C[C@@H]1CCNC1=O)SCCS2)C(C)(C)C` [Compound 6], for which the IC50 in data set [1] was in the range of 100 to 1000 nM.

With `CC(C)(C)[C@H](NC(=O)c1ccccc1)C(=O)N1CC2(C[C@H]1C(=O)N[C@H](C#N)C[C@@H]1CCNC1=O)SCCS2` [Compound 8], the IC50 in data set [1] fell in the range of 1000 to 10000 nM.

In data set [1], `CC(C)(C)[C@H](NC(=O)c1cc(C(F)(F)F)cc(C(F)(F)F)c1)C(=O)N1CC2(C[C@H]1C(=O)N[C@H](C#N)C[C@@H]1CCNC1=O)SCCS2` [Compound 9] returned a concentration for half-maximal inhibition (IC50) of 1000 to 10000 nM.

As to `Cc1cc(C)cc(C(=O)N[C@H](C(=O)N2CC3(C[C@H]2C(=O)N[C@H](C#N)C[C@@H]2CCNC2=O)SCCS3)C(C)(C)C)c1` [Compound 10], in data set [1], the IC50 lay in the range of 1000 to 10000 nM.

The compound `CC(C)(C)[C@H](NC(=O)CC(F)(F)F)C(=O)N1CC2(C[C@H]1C(=O)N[C@H](C#N)C[C@@H]1CCNC1=O)SCCS2` [Compound 11] showed an IC50 in data set [1] of 100 to 1000 nM.

`CC(C)(C)[C@H](NC(=O)c1cccnc1)C(=O)N1CC2(C[C@H]1C(=O)N[C@H](C#N)C[C@@H]1CCNC1=O)SCCS2` [Compound 12] had an IC50 in data set [1] of 1000 to 10000 nM.

In turn, `CC(C)(C)[C@H](NC(=O)C(F)(F)C(F)(F)F)C(=O)N1CC2(C[C@H]1C(=O)N[C@H](C#N)C[C@@H]1CCNC1=O)SCCS2` [Compound 13] displayed an IC50 in data set [1] below 100 nM.

As to `N#C[C@H](C[C@@H]1CCNC1=O)NC(=O)[C@@H]1CC2(CN1C(=O)[C@@H](NC(=O)C(F)(F)F)C1CCCC1)SCCS2` [Compound 14], in data set [1], the half-maximal inhibitory concentration (IC50) is below 100 nM.

Take `CC(C)(C)[C@H](NS(=O)(=O)c1ccccc1)C(=O)N1CC2(C[C@H]1C(=O)N[C@H](C#N)C[C@@H]1CCNC1=O)SCCS2` [Compound 17]: the IC50 in data set [1] was in the range of 1000 to 10000 nM.

`CC(C)(C)[C@H](NC(=O)C(F)(F)F)C(=O)N1CC2(C[C@H]1C(=O)N[C@H](C#N)C[C@@H]1CCNC1=O)OCCO2` [Compound 18] registered an IC50 in data set [1] below 100 nM.

In turn, `CC(C)(C)[C@H](NC(=O)C(F)(F)F)C(=O)N1C[C@H](Sc2ccccc2)C[C@H]1C(=O)N[C@H](C#N)C[C@@H]1CCNC1=O` [Compound 19] had an IC50 in data set [1] of 1000 to 10000 nM.

In turn, `CC(C)(C)[C@H](NC(=O)c1c(F)c(F)c(F)c(F)c1F)C(=O)N1CC2(C[C@H]1C(=O)N[C@H](C#N)C[C@@H]1CCNC1=O)SCCS2` [Compound 20] had an IC50 in data set [1] of 100 to 1000 nM.

For the compound `N#C[C@H](C[C@@H]1CCNC1=O)NC(=O)[C@@H]1CC2(CN1C(=O)[C@@H](NC(=O)C1(F)CC1)C1CCCC1)SCCS2` [Compound 21], in data set [1], the IC50 was below 100 nM.

`CC(C)(C)[C@H](NC(=O)C(F)(F)C(F)(F)F)C(=O)N1CC2(C[C@H]1C(=O)N[C@H](C#N)C[C@@H]1CCCNC1=O)SCCS2` [Compound 22] showed a half-maximal inhibitory concentration (IC50) in data set [1] below 100 nM.

`N#C[C@H](C[C@@H]1CCNC1=O)NC(=O)[C@@H]1CC2(CN1C(=O)[C@@H](NC(=O)C(F)(F)F)C13CC4CC(CC(C4)C1)C3)SCCS2` [Compound 23] came in with an IC50 in data set [1] below 100 nM.

By IC50 is commonly meant the concentration at which inhibition is half-maximal.
